Measured values: ChEMBL document CHEMBL1149830, “Kadsuracoccinic acids A-C, ring-A seco-lanostane triterpenes from Kadsura coccinea and their effects on embryonic cell division of Xenopus laevis” (J Nat Prod, 2008)

Experiments:
[1] = Growth inhibition of embryonic cells of stage 8 Xenopus laevis blastulae at 10 ug/mL; format: functional; conditions: Blastula stage
[2] = Induction of cleavage arrest in embryonic cells of stage 8 Xenopus laevis blastulae; format: functional, cell-based; conditions: Blastula
[3] = Induction of cleavage arrest in embryonic cells of stage 8 Xenopus laevis blastulae at 1 ug/mL; format: functional, Blastula

O=c1[nH]cc(F)c(=O)[nH]1 [FLUOROURACIL]
inhibition at 10 µg/mL [1]: 47%
IC50 [2]: 26.8 µM

C=C(C)[C@@H]1CC[C@@H]2C(=CC[C@]3(C)/C(=C(/C)CC/C=C(/C)C(=O)O)CC[C@@]23C)[C@@]1(C)CCC(=O)O [KADSURACOCCINIC ACID A]
IC50 [2]: 0.68 µM
Activity [3]: 85%
